Test results: US20230131899A1, “INHIBITORS OF MICROBIALLY INDUCED AMYLOID” (Axial Therapeutics, Inc., priority 2020, published 2023)
Where two headings read alike, the source gives them in different places.

Target: T1, E. coli CsgA (Escherichia coli, UniProt P28307)
T1 construct: made in house; host or cells: E. coli NEB 3016 slyD::kan, pET11d
Assay: In vitro ThioflavinT assay of CsgA aggregation (CsgA ThT Assay)
Format: biochemical
Details: for remaining activity at 25 µM: compound 25 μM
How it was run: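 Purified C-terminal His-tagged CsgA, monomerised by desalting and 30-kDa filtration, at 2-20 μM with 20-40 μM ThT in 50 mM potassium phosphate pH 7.3, 1% DMSO, compounds 3.125-200 uM; room temperature, fluorescence (ex 438/em 495 nm) read every 15 min. Background-subtracted signal expressed as percent inhibition versus vehicle at 6-6.5 or 8-9 h, or as percent control AUC.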

[1] = read-out: CsgA ThT Assay (2 μM CsgA) % Control Bmax 25 μM, activity range, class symbol, CsgA 2 μM, white plates
[2] = read-out: CsgA ThT Assay (2 μM CsgA) % Control Bmax 25 μM, mean Bmax as percentage of DMSO control, CsgA 2 μM, white plates
[3] = read-out: CsgA ThT Assay (2 μM CsgA) % Control Bmax 100 μM, activity range, class symbol, CsgA 2 μM, white plates, compound 100 μM
[4] = read-out: CsgA ThT Assay (2 μM CsgA) % Control Bmax 100 μM, mean Bmax as percentage of DMSO control, CsgA 2 μM, white plates, compound 100 μM
[5] = read-out: CsgA ThT Assay (10 μM CsgA) % Control AUC at 1005 minutes, 25 μM (activity range), CsgA 10 μM, black plates, 1005 minutes, class symbol
[6] = read-out: CsgA ThT Assay (10 μM CsgA) % Control AUC at 1005 minutes, 25 μM, mean AUC as % of DMSO control, CsgA 10 μM, black plates, 1005 minutes
[7] = read-out: CsgA ThT Assay (10 μM CsgA) % Control AUC at 1005 minutes, 100 μM (activity range), CsgA 10 μM, black plates, compound 100 μM, 1005 minutes, class symbol
[8] = read-out: CsgA ThT Assay (10 μM CsgA) % Control AUC at 1005 minutes, 100 μM, mean AUC as % of DMSO control, CsgA 10 μM, black plates, compound 100 μM, 1005 minutes

T1 sequence (P28307 23-151): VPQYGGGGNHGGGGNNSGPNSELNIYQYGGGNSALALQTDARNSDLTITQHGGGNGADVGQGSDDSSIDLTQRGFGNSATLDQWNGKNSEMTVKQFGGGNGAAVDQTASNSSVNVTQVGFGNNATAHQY

O=C(O)C1CN(Cc2cccnc2)c2c(-c3cccc(C(F)(F)F)c3)c(Cc3cccc4ccccc34)c(Cl)c(=O)n21 (stereo not drawn) [Compound 169, 6-chloro-7-(naphthalen-1-ylmethyl)-5-oxo-1-(pyridin-3-ylmethyl)-8-(3-(trifluoromethyl)phenyl)-1,2,3,5-tetrahydroimidazo[1,2-a]pyridine-3-carboxylic acid]
remaining activity at 25 µM [1]: > 60%
remaining activity at 25 µM [2]: 77%
remaining activity at 100 µM [3]: > 60%
remaining activity at 100 µM [4]: 64%

O=C(O)C1CN(C[C@H](O)[C@@H](O)[C@H](O)[C@H](O)CO)S(=O)(=O)c2c(-c3cccc(C(F)(F)F)c3)c(Cc3cccc4ccccc34)cc(=O)n21 (mixture of isomers) [Compound 066, 8-(naphthalen-1-ylmethyl)-6-oxo-2-((2S,3R,4R,5R)-2,3,4,5,6-pentahydroxyhexyl)-9-(3-(trifluoromethyl)phenyl)-3,4-dihydro-2H,6H-pyrido[1,2-e][1,2,5]thiadiazine-4-carboxylic acid 1,1-dioxide]
remaining activity at 25 µM [5]: > 60%
remaining activity at 25 µM [6]: 88%
remaining activity at 100 µM [7]: 11 to 31%
remaining activity at 100 µM [8]: 29%

CCCCCN1CC(C(=O)O)n2c(c(-c3cccc(C(F)(F)F)c3)c(Cc3cccc4ccccc34)cc2=O)S1(=O)=O (single isomer, unassigned) [Compound 025a, 8-(naphthalen-1-ylmethyl)-6-oxo-2-pentyl-9-(3-(trifluoromethyl)phenyl)-3,4-dihydro-2H,6H-pyrido[1,2-e][1,2,5]thiadiazine-4-carboxylic acid 1,1-dioxide]
CsgA ThT Assay (10 μM CsgA) % Control AUC at 1005 minutes, 100 μM (mean AUC as % of DMSO control, CsgA 10 μM, black plates, compound 100 μM, 1005 minutes): 143%
remaining activity at 25 µM [5]: 31 to 60%
remaining activity at 25 µM [6]: 38%
remaining activity at 100 µM [7]: > 60%

CCCNC(=O)c1c(Cc2cccc3ccccc23)c(-c2cccc(C(F)(F)F)c2)c2n(c1=O)C(C(=O)O)CN(C)S2(=O)=O (stereo not drawn) [Compound 154, 2-methyl-8-(naphthalen-1-ylmethyl)-6-oxo-7-(propylcarbamoyl)-9-(3-(trifluoromethyl)phenyl)-3,4-dihydro-2H,6H-pyrido[1,2-e][1,2,5]thiadiazine-4-carboxylic acid 1,1-dioxide]
remaining activity at 25 µM [1]: > 60%
remaining activity at 25 µM [2]: 92%
remaining activity at 100 µM [3]: > 60%
remaining activity at 100 µM [4]: 63%

CN(C)C(=O)c1c(Cc2cccc3ccccc23)c(-c2cccc(C(F)(F)F)c2)c2n(c1=O)C(C(=O)O)CN(C)S2(=O)=O (stereo not drawn) [Compound 173, 7-(dimethylcarbamoyl)-2-methyl-8-(naphthalen-1-ylmethyl)-6-oxo-9-(3-(trifluoromethyl)phenyl)-3,4-dihydro-2H,6H-pyrido[1,2-e] [1,2,5] thiadiazine-4-carboxylic acid 1,1-dioxide]
remaining activity at 25 µM [1]: > 60%
remaining activity at 25 µM [2]: 73%
remaining activity at 100 µM [3]: 31 to 60%
remaining activity at 100 µM [4]: 40%

CCCN1CC(C(=O)O)n2c(c(-c3cccc(C(F)(F)F)c3)c(Cc3cccc4ccccc34)c(NC(=O)CC)c2=O)S1(=O)=O (stereo not drawn) [Compound 153, 8-(naphthalen-1-ylmethyl)-6-oxo-7-propionamido-2-propyl-9-(3-(trifluoromethyl)phenyl)-3,4-dihydro-2H,6H-pyrido[1,2-e][1,2,5]thiadiazine-4-carboxylic acid 1,1-dioxide]
remaining activity at 25 µM [1]: > 60%
remaining activity at 25 µM [2]: 91%
remaining activity at 100 µM [3]: > 60%
remaining activity at 100 µM [4]: 83%

O=C(O)C1n2c(c(-c3cccc(C(F)(F)F)c3)c(Cc3cccc4ccccc34)nc2=O)SC12CCCC2 (stereo not drawn) [Compound 053, 7′-(naphthalen-1-ylmethyl)-5′-oxo-8′-(3-(trifluoromethyl)phenyl)-3′H,5′H-spiro[cyclopentane-1,2′-thiazolo[3,2-c]pyrimidine]-3′-carboxylic acid]
remaining activity at 25 µM [5]: 31 to 60%
remaining activity at 25 µM [6]: 39%
remaining activity at 100 µM [7]: 11 to 31%
remaining activity at 100 µM [8]: 12%

CCCN1CC(C(=O)O)n2c1c(-c1cccc(C(F)(F)F)c1)c(Cc1cccc3ccccc13)c(Cl)c2=O (stereo not drawn) [Compound 162, 6-chloro-7-(naphthalen-1-ylmethyl)-5-oxo-1-propyl-8-(3-(trifluoromethyl)phenyl)-1,2,3,5-tetrahydroimidazo[1,2-a]pyridine-3-carboxylic acid]
remaining activity at 25 µM [1]: 31 to 60%
remaining activity at 25 µM [2]: 34%
remaining activity at 100 µM [3]: 31 to 60%
remaining activity at 100 µM [4]: 49%

Cn1c(=O)c2c(nc(CCCCN3CC(C(=O)O)n4c(c(-c5cccc(C(F)(F)F)c5)c(Cc5cccc6ccccc56)cc4=O)S3(=O)=O)n2C)n(C)c1=O (stereo not drawn) [Compound 044, 8-(naphthalen-1-ylmethyl)-6-oxo-9-(3-(trifluoromethyl)phenyl)-2-(4-(1,3,7-trimethyl-2,6-dioxo-2,3,6,7-tetrahydro-1H-purin-8-yl)butyl)-3,4-dihydro-2H,6H-pyrido[1,2-e][1,2,5]thiadiazine-4-carboxylic acid 1,1-dioxide]
remaining activity at 25 µM [5]: 31 to 60%
remaining activity at 25 µM [6]: 55%
remaining activity at 100 µM [7]: 31 to 60%
remaining activity at 100 µM [8]: 42%

Cc1c(Cc2cccc3ccccc23)c(-c2cccc(C(F)(F)F)c2)c2n(c1=O)C(C(=O)O)CN(C)S2(=O)=O (stereo not drawn) [Compound 068, 2,7-dimethyl-8-(naphthalen-1-ylmethyl)-6-oxo-9-(3-(trifluoromethyl)phenyl)-3,4-dihydro-2H,6H-pyrido[1,2-e][1,2,5]thiadiazine-4-carboxylic acid 1,1-dioxide]
remaining activity at 25 µM [5]: 31 to 60%
remaining activity at 25 µM [6]: 43%
remaining activity at 100 µM [7]: 11 to 31%
remaining activity at 100 µM [8]: 23%

Nc1c(Cc2ccc(N)c3ccccc23)c(-c2cccc(C(F)(F)F)c2)c2n(c1=O)C(C(=O)O)CNS2(=O)=O (stereo not drawn) [Compound 041]
remaining activity at 25 µM [5]: > 60%
remaining activity at 25 µM [6]: 75%
remaining activity at 100 µM [7]: 11 to 31%
remaining activity at 100 µM [8]: 27%

O=C(O)C1CN(CC2CCOCC2)c2c(-c3cccc(C(F)(F)F)c3)c(Cc3cccc4ccccc34)c(Cl)c(=O)n21 (stereo not drawn) [Compound 182, 6-chloro-7-(naphthalen-1-ylmethyl)-5-oxo-1-((tetrahydro-2H-pyran-4-yl)methyl)-8-(3-(trifluoromethyl)phenyl)-1,2,3,5-tetrahydroimidazo[1,2-a]pyridine-3-carboxylic acid]
remaining activity at 25 µM [1]: > 60%
remaining activity at 25 µM [2]: 68%
remaining activity at 100 µM [3]: > 60%
remaining activity at 100 µM [4]: 61%

O=C(O)C1CN(CCCCCO)c2c(-c3cccc(C(F)(F)F)c3)c(Cc3cccc4ccccc34)c(Cl)c(=O)n21 (stereo not drawn) [Compound 199, 6-chloro-1-(5-hydroxypentyl)-7-(naphthalen-1-ylmethyl)-5-oxo-8-(3-(trifluoromethyl)phenyl)-1,2,3,5-tetrahydroimidazo[1,2-a]pyridine-3-carboxylic acid]
remaining activity at 25 µM [1]: > 60%
remaining activity at 25 µM [2]: 83%
remaining activity at 100 µM [3]: > 60%
remaining activity at 100 µM [4]: 99%

NC(=O)c1c(Cc2cccc3ccccc23)c(-c2cccc(C(F)(F)F)c2)c2n(c1=O)C(C(=O)O)CN(CCCO)S2(=O)=O (stereo not drawn) [Compound 184, 7-carbamoyl-2-(3-hydroxypropyl)-8-(naphthalen-1-ylmethyl)-6-oxo-9-(3-(trifluoromethyl)phenyl)-3,4-dihydro-2H,6H-pyrido[1,2-e][1,2,5]thiadiazine-4-carboxylic acid 1,1-dioxide]
remaining activity at 25 µM [1]: 31 to 60%
remaining activity at 25 µM [2]: 45%
remaining activity at 100 µM [3]: 11 to 31%
remaining activity at 100 µM [4]: 22%

CN(C)C(=O)C1CN(C)S(=O)(=O)c2c(-c3cccc(C(F)(F)F)c3)c(Cc3cccc4ccccc34)cc(=O)n21 (stereo not drawn) [Compound 032, N,N-2-trimethyl-8-(naphthalen-1-ylmethyl)-6-oxo-9-(3-(trifluoromethyl)phenyl)-3,4-dihydro-2H,6H-pyrido[1,2-e][1,2,5]thiadiazine-4-carboxamide 1,1-dioxide]
remaining activity at 25 µM [5]: > 60%
remaining activity at 25 µM [6]: 92%

O=C(O)C1CN(CCC2CCCCC2)c2c(-c3cccc(C(F)(F)F)c3)c(Cc3cccc4ccccc34)c(Cl)c(=O)n21 (stereo not drawn) [Compound 207, 6-chloro-1-(2-cyclohexylethyl)-7-(naphthalen-1-ylmethyl)-5-oxo-8-(3-(trifluoromethyl)phenyl)-1,2,3,5-tetrahydroimidazo[1,2-a]pyridine-3-carboxylic acid]
remaining activity at 25 µM [1]: 31 to 60%
remaining activity at 25 µM [2]: 51%
remaining activity at 100 µM [3]: 11 to 31%
remaining activity at 100 µM [4]: 20%

O=C(O)C1CN(Cc2ccccc2CO)c2c(-c3cccc(C(F)(F)F)c3)c(Cc3cccc4ccccc34)c(Cl)c(=O)n21 (stereo not drawn) [Compound 181, 6-chloro-1-(2-(hydroxymethyl)benzyl)-7-(naphthalen-1-ylmethyl)-5-oxo-8-(3-(trifluoromethyl)phenyl)-1,2,3,5-tetrahydroimidazo[1,2-a]pyridine-3-carboxylic acid]
remaining activity at 25 µM [1]: 31 to 60%
remaining activity at 25 µM [2]: 57%
remaining activity at 100 µM [3]: 31 to 60%
remaining activity at 100 µM [4]: 40%
